Source: patent publication US6503881B2 (priority 1996, dated 2003)
Where two headings read alike, the source gives them in different places.

Test system: bacterial isolates
Conditions: for PIC: with Gentamicin

## W R I W K P K W R L P K W [MBI 11D18CN]
A. baumannii ABI001
  Gentamicin MIC + Peptide: 16 µg/mL
  Peptide MIC + Gentamicin: 0.5 µg/mL
  Peptide MIC + Tobramycin: 4 µg/mL
  Peptide MIC Alone: 64 µg/mL
  Tobramycin MIC + Peptide: 4 µg/mL
  PIC: 0.27
A. baumannii ABI002
  Gentamicin MIC + Peptide: 8 µg/mL
  Peptide MIC + Gentamicin: 2 µg/mL
  Peptide MIC + Tobramycin: 0.5 µg/mL
  Peptide MIC Alone: 16 µg/mL
  Tobramycin MIC + Peptide: 4 µg/mL
  PIC: 0.56
A. calcoaceticus 3
  Peptide MIC + Piperacillin: 8 µg/mL
  Peptide MIC Alone: 32 µg/mL
  Piperacillin MIC + Peptide: 8 µg/mL
E. cloacae 9
  Peptide MIC + Piperacillin: 16 µg/mL
  Peptide MIC Alone: 64 µg/mL
  Piperacillin MIC + Peptide: 16 µg/mL
E. cloacae 10
  Peptide MIC + Piperacillin: 8 µg/mL
  Peptide MIC Alone: 32 µg/mL
  Piperacillin MIC + Peptide: 64 µg/mL
E. coli ECO006
  Gentamicin MIC + Peptide: 16 µg/mL
  Peptide MIC + Gentamicin: 0.125 µg/mL
  PIC: 0.27
E. coli SBECO1
  Mupirocin MIC + Peptide: 30 µg/mL
  Peptide MIC + Mupirocin: 0.125 µg/mL
E. coli SBECO1 (Mupirocin section)
  Peptide MIC Alone: 2 µg/mL
E. coli SBECO2
  Mupirocin MIC + Peptide: 30 µg/mL
  Peptide MIC + Mupirocin: 0.5 µg/mL
E. coli SBECO2 (Mupirocin section)
  Peptide MIC Alone: 16 µg/mL
E. faecalis EFS001
  Peptide MIC + Vancomycin: 2 µg/mL
  Peptide MIC Alone: 8 µg/mL
  Vancomycin MIC + Peptide: 0.125 µg/mL
E. faecalis EFS004
  Peptide MIC + Vancomycin: 2 µg/mL
  Peptide MIC Alone: 8 µg/mL
  Vancomycin MIC + Peptide: 0.5 µg/mL
E. faecalis EFS008
  Gentamicin MIC + Peptide: 8 µg/mL
  Peptide MIC + Gentamicin: 0.125 µg/mL
  PIC: 0.19
E. faecalis EFS011
  Peptide MIC + Vancomycin: 0.125 µg/mL
  Peptide MIC Alone: 64 µg/mL
  Vancomycin MIC + Peptide: 32 µg/mL
E. faecalis EFS012
  Peptide MIC + Vancomycin: 2 µg/mL
  Peptide MIC Alone: 16 µg/mL
  Vancomycin MIC + Peptide: 64 µg/mL
E. faecalis EFS014
  Peptide MIC + Vancomycin: 0.5 µg/mL
  Peptide MIC Alone: 4 µg/mL
  Vancomycin MIC + Peptide: 4 µg/mL
E. faecium EFM004
  Gentamicin MIC + Peptide: 8 µg/mL
  Peptide MIC + Gentamicin: 0.125 µg/mL
  Peptide MIC + Vancomycin: 2 µg/mL
  Peptide MIC Alone: 8 µg/mL
  Vancomycin MIC + Peptide: 64 µg/mL
  PIC: 0.05
E. faecium EFM009
  Peptide MIC + Vancomycin: 0.125 µg/mL
  Peptide MIC Alone: 8 µg/mL
  Vancomycin MIC + Peptide: 32 µg/mL
E. faecium EFM010
  Peptide MIC + Vancomycin: 0.25 µg/mL
  Peptide MIC Alone: 8 µg/mL
  Vancomycin MIC + Peptide: 64 µg/mL
E. faecium EFM011
  Peptide MIC + Vancomycin: 2 µg/mL
  Peptide MIC Alone: 8 µg/mL
  Vancomycin MIC + Peptide: 64 µg/mL
H. influenzae 3
  Peptide MIC + Piperacillin: 8 µg/mL
  Peptide MIC Alone: >128 µg/mL
  Piperacillin MIC + Peptide: 0.25 µg/mL
H. influenzae SB1
  Peptide MIC + Piperacillin: 4 µg/mL
  Peptide MIC Alone: >128 µg/mL
  Piperacillin MIC + Peptide: 0.25 µg/mL
K. pneumonia KP020
  Gentamicin MIC + Peptide: 32 µg/mL
  Peptide MIC + Gentamicin: 0.125 µg/mL
  PIC: 0.50
K. pneumonia KP020 (Gentamicin section)
  Peptide MIC Alone: 32 µg/mL
P. aeruginosa 23
  Peptide MIC + Piperacillin: 8 µg/mL
  Peptide MIC Alone: 64 µg/mL
  Piperacillin MIC + Peptide: 32 µg/mL
P. aeruginosa 41
  Peptide MIC + Piperacillin: 16 µg/mL
  Peptide MIC Alone: >128 µg/mL
  Piperacillin MIC + Peptide: 32 µg/mL
P. aeruginosa PA4
  Mupirocin MIC + Peptide: 30 µg/mL
  Peptide MIC + Mupirocin: 64 µg/mL
P. aeruginosa PA4 (Mupirocin section)
  Peptide MIC Alone: 128 µg/mL
P. aeruginosa PA022
  Gentamicin MIC + Peptide: 8 µg/mL
  Peptide MIC + Gentamicin: 0.125 µg/mL
  PIC: 0.52
P. aeruginosa PA022 (Gentamicin section)
  Peptide MIC Alone: 8 µg/mL
P. aeruginosa PA24
  Ciprofloxacin MIC + Peptide: 4 µg/mL
  Peptide MI + Ciprofloxacin: 16 µg/mL
P. aeruginosa PA24 (Ciprofloxacin section)
  Peptide MI Alone: >128 µg/mL
P. aeruginosa PA041
  Gentamicin MIC + Peptide: 0.125 µg/mL
  Peptide MIC + Gentamicin: 8 µg/mL
  PIC: 0.14
P. aeruginosa PA041 (Gentamicin section)
  Peptide MIC Alone: 64 µg/mL
P. aeruginosa PA77
  Ciprofloxacin MIC + Peptide: 0.5 µg/mL
  Peptide MI + Ciprofloxacin: 32 µg/mL
P. aeruginosa PA77 (Ciprofloxacin section)
  Peptide MI Alone: 128 µg/mL
P. aeruginosa SBPA1
  Mupirocin MIC + Peptide: 100 µg/mL
  Peptide MIC + Mupirocin: 32 µg/mL
P. aeruginosa SBPA1 (Mupirocin section)
  Peptide MIC Alone: 128 µg/mL
Piperacillin + peptide, A. calcoaceticus 3
  FIC: 0.38
Piperacillin + peptide, E. cloacae 9
  FIC: 0.31
Piperacillin + peptide, E. cloacae 10
  FIC: 0.50
Piperacillin + peptide, H. influenzae 3
  FIC: 0.53
Piperacillin + peptide, H. influenzae SB1
  FIC: 0.52
Piperacillin + peptide, P. aeruginosa 23
  FIC: 0.38
Piperacillin + peptide, P. aeruginosa 41
  FIC: 0.56
Piperacillin + peptide, S. aureus 19 MRSA
  FIC: 0.38
Piperacillin + peptide, S. aureus SB2MRSA
  FIC: 0.50
Piperacillin + peptide, S. maltophilia 2
  FIC: 0.50
Piperacillin + peptide, S. marcescens 1
  FIC: 0.14
S. aureus 19 MRSA
  Peptide MIC + Piperacillin: 1 µg/mL
  Peptide MIC Alone: 4 µg/mL
  Piperacillin MIC + Peptide: 16 µg/mL
S. aureus SA014 MRSA
  Gentamicin MIC + Peptide: 2 µg/mL
  Peptide MIC + Gentamicin: 0.125 µg/mL
  PIC: 0.13
S. aureus SA014 MRSA (Gentamicin section)
  Peptide MIC Alone: 2 µg/mL
S. aureus SA018 MRSA
  Peptide MIC + Tobramycin: 16 µg/mL
  Peptide MIC Alone: 32 µg/mL
  Tobramycin MIC + Peptide: 4 µg/mL
S. aureus SA025 MRSA
  Gentamicin MIC + Peptide: 1 µg/mL
  Peptide MIC + Gentamicin: 0.125 µg/mL
  PIC: 0.14
S. aureus SA025 MRSA (Gentamicin section)
  Peptide MIC Alone: 1 µg/mL
S. aureus SB2MRSA
  Peptide MIC + Piperacillin: 0.5 µg/mL
  Peptide MIC Alone: 2 µg/mL
  Piperacillin MIC + Peptide: 32 µg/mL
S. epidermidis SE071
  Gentamicin MIC + Peptide: 4 µg/mL
  Peptide MIC + Gentamicin: 0.125 µg/mL
  PIC: 0.27
S. epidermidis SE071 (Gentamicin section)
  Peptide MIC Alone: 8 µg/mL
S. epidermidis SE074
  Gentamicin MIC + Peptide: 4 µg/mL
  Peptide MIC + Gentamicin: 0.125 µg/mL
  PIC: 0.09
S. epidermidis SE074 (Gentamicin section)
  Peptide MIC Alone: 4 µg/mL
S. haemolyticus SHA001
  Peptide MIC + Tobramycin: 1 µg/mL
  Peptide MIC Alone: 2 µg/mL
  Tobramycin MIC + Peptide: 0.125 µg/mL
S. maltophilia 2
  Peptide MIC + Piperacillin: 8 µg/mL
  Peptide MIC Alone: 32 µg/mL
  Piperacillin MIC + Peptide: 16 µg/mL
S. maltophilia SMA016
  Gentamicin MIC + Peptide: 16 µg/mL
  Peptide MIC + Gentamicin: 16 µg/mL
  PIC: 0.38
S. maltophilia SMA016 (Gentamicin section)
  Peptide MIC Alone: 64 µg/mL
S. maltophilia SMA019
  Gentamicin MIC + Peptide: 4 µg/mL
  Peptide MIC + Gentamicin: 0.5 µg/mL
  PIC: 0.19
S. maltophilia SMA019 (Gentamicin section)
  Peptide MIC Alone: 8 µg/mL
S. maltophilia SMA027
  Peptide MIC + Tobramycin: 16 µg/mL
  Peptide MIC Alone: >128 µg/mL
  Tobramycin MIC + Peptide: 4 µg/mL
S. maltophilia SMA029
  Peptide MIC + Tobramycin: 4 µg/mL
  Peptide MIC Alone: 32 µg/mL
  Tobramycin MIC + Peptide: 4 µg/mL
S. marcescens 1
  Peptide MIC + Piperacillin: 4 µg/mL
  Peptide MIC Alone: >128 µg/mL
  Piperacillin MIC + Peptide: 8 µg/mL
S. marcescens SBSM1
  Mupirocin MIC + Peptide: 100 µg/mL
  Peptide MIC + Mupirocin: 16 µg/mL
S. marcescens SBSM1 (Mupirocin section)
  Peptide MIC Alone: >128 µg/mL
S. marcescens SBSM2
  Mupirocin MIC + Peptide: 100 µg/mL
  Peptide MIC + Mupirocin: 64 µg/mL
S. marcescens SBSM2 (Mupirocin section)
  Peptide MIC Alone: >128 µg/mL
Tobramycin + peptide, A. baumannii ABI001
  FIC: 0.31
Tobramycin + peptide, A. baumannii ABI002
  FIC: 0.53
Tobramycin + peptide, S. aureus SA018 MRSA
  FIC: 0.56
Tobramycin + peptide, S. haemolyticus SHA001
  FIC: 0.53
Tobramycin + peptide, S. maltophilia SMA027
  FIC: 0.19
Tobramycin + peptide, S. maltophilia SMA029
  FIC: 0.16
Vancomycin + peptide, E. faecalis EFS001
  FIC: 0.38
Vancomycin + peptide, E. faecalis EFS004
  FIC: 0.50
Vancomycin + peptide, E. faecalis EFS011
  FIC: 0.50
Vancomycin + peptide, E. faecalis EFS012
  FIC: 0.38
Vancomycin + peptide, E. faecalis EFS014
  FIC: 0.16
Vancomycin + peptide, E. faecium EFM004
  FIC: 0.50
Vancomycin + peptide, E. faecium EFM009
  FIC: 0.52
Vancomycin + peptide, E. faecium EFM010
  FIC: 0.28
Vancomycin + peptide, E. faecium EFM011
  FIC: 0.50
With Ciprofloxacin, P. aeruginosa PA24
  FIC: 0.31
With Ciprofloxacin, P. aeruginosa PA77
  FIC: 0.50
With Mupirocin, E. coli SBECO1
  FIC: 0.36
With Mupirocin, E. coli SBECO2
  FIC: 0.06
With Mupirocin, P. aeruginosa PA4
  FIC: 0.53
With Mupirocin, P. aeruginosa SBPA1
  FIC: 0.35
With Mupirocin, S. marcescens SBSM1
  FIC: 0.16
With Mupirocin, S. marcescens SBSM2
  FIC: 0.35
